Results published in the NIST ThermoML archive (doi:10.1016/j.jct.2004.07.025).
Several values for one entry are separate records, joined by “and”; a condition that tells them apart may be missing. Equal values may be shown once.

Conditions: Liquid

CCOC(=O)c1ccccc1C(=O)OCC [diethyl phthalate]
Conditions	vapor or sublimation pressure
303.19 K, Calculated from knudsen effusion weight loss	0.000165 kPa
307.62 K, Calculated from knudsen effusion weight loss	0.00026 kPa
308.1 K, Calculated from knudsen effusion weight loss	0.000271 kPa
313.34 K, Calculated from knudsen effusion weight loss	0.000456 kPa
318.54 K, Calculated from knudsen effusion weight loss	0.000769 kPa
323.04 K, Calculated from knudsen effusion weight loss	0.00116 kPa
323.33 K, Calculated from knudsen effusion weight loss	0.001179 kPa
328.33 K, Calculated from knudsen effusion weight loss	0.001842 kPa
333.55 K, Calculated from knudsen effusion weight loss	0.002839 kPa
333.58 K, Calculated from knudsen effusion weight loss	0.002895 kPa
333.68 K, Calculated from knudsen effusion weight loss	0.00286 kPa
335.05 K, Closed cell (Static) method	0.0037 kPa
335.07 K, Closed cell (Static) method	0.0037 kPa
337.65 K, Calculated from knudsen effusion weight loss	0.003873 kPa
338.68 K, Calculated from knudsen effusion weight loss	0.004379 kPa
343.7 K, Calculated from knudsen effusion weight loss	0.006569 kPa
344.41 K, Closed cell (Static) method	0.0076 kPa
344.43 K, Closed cell (Static) method	0.0077 kPa
354.01 K, Closed cell (Static) method	0.0158 kPa
354.03 K, Closed cell (Static) method	0.0159 kPa
363.15 K, Closed cell (Static) method	0.0304 kPa
363.16 K, Closed cell (Static) method	0.0305 kPa
365.75 K, Closed cell (Static) method	0.036 kPa and 0.0359 kPa
365.77 K, Closed cell (Static) method	0.0363 kPa
375.29 K, Closed cell (Static) method	0.0671 kPa
375.31 K, Closed cell (Static) method	0.0671 kPa
384.96 K, Closed cell (Static) method	0.121 kPa
394.42 K, Closed cell (Static) method	0.21 kPa and 0.209 kPa and 0.207 kPa
394.43 K, Closed cell (Static) method	0.208 kPa
394.47 K, Closed cell (Static) method	0.207 kPa
403.73 K, Closed cell (Static) method	0.346 kPa
403.77 K, Closed cell (Static) method	0.347 kPa
404.25 K, Closed cell (Static) method	0.352 kPa
404.27 K, Closed cell (Static) method	0.352 kPa
413.4 K, Closed cell (Static) method	0.568 kPa
413.43 K, Closed cell (Static) method	0.569 kPa
414.26 K, Closed cell (Static) method	0.585 kPa
414.27 K, Closed cell (Static) method	0.586 kPa
424.06 K, Closed cell (Static) method	0.94 kPa
424.09 K, Closed cell (Static) method	0.94 kPa
479.25 K, Ebulliometric method (Recirculating still)	8.318 kPa
487.77 K, Ebulliometric method (Recirculating still)	11.06 kPa
494.93 K, Ebulliometric method (Recirculating still)	13.9 kPa
501 K, Ebulliometric method (Recirculating still)	16.77 kPa
507.32 K, Ebulliometric method (Recirculating still)	20.26 kPa
513.93 K, Ebulliometric method (Recirculating still)	24.53 kPa
520.32 K, Ebulliometric method (Recirculating still)	29.35 kPa
